Counter-ions that a name gives are not always drawn. Like-named read-outs stand apart in the source and are kept apart here.
Tested on: MLKL phosphorylation in HT29-L23 human colorectal adenocarcinoma cells
Test: MLKL Phosphorylation High-Content Assay
Type: cell-based
Conditions: 6 h, necroptosis induced with TNFα, SMAC mimetic and Z-VAD, read-out: pMLKL (IC50)
Description: MLKL Phosphorylation High-Content Assay
HT29-L23 human colorectal adenocarcinoma cells were maintained in RPMI 1640 medium containing 10% heat-inactivated FBS, 1% Penicillin-Streptomycin and 10 mM HEPES. Cells were seeded at 2,000 cells/well in 384 well tissue culture-treated microplates (Greiner #781090-3B) and incubated at 37° C. (5% CO2/95% O2) for 2 d. […] (5% CO2/95% O2). Necroptopsis was induced using a mixture of human TNFα (35 ng/mL) (Peprotech #300-01A), SMAC mimetic (from US 2015/0322111 A1) (700 nM) and Z-VAD ([…]) (BD pharmingen #51-6936). Following 6 h incubation at 37° C. (5% CO2/95% O2), the cells were fixed with 4% formaldehyde (ACROS 11969-0010) for 15 min at rt, then permeabilized with phosphate buffered saline (PBS) containing 0.2% Triton-X-100 for 10 min. MLKL phosphorylation was detected using anti-MLKL (phospho S358) antibody (Abeam #ab 187091) (1:1000 dilution in Blocking Buffer [PBS supplemented with 0.1% BSA]) with ON incubation at 4° C. After washing three times in PBS, goat anti-rabbit Alexa-488 (1:1000 dilution) (Life Technologies, A11008) and Hoechst 33342 (Life Technologies, H3570) (1:2000 dilution) in Blocking Buffer were added for 1 h at rt.
Following another three cycles of washes in PBS, the microplates were sealed, and cellular images were acquired in the Cellomics ArrayScan VTI high-content imager equipped with an X1 camera. Fluorescent images were taken using a 10× objective and the 386-23 BGRFRN_BGRFRN and 485-20 BGRFRN_BGRFRN filter sets, for nuclei and MLKL phosphorylation, respectively. The image sets were analyzed using the Compartmental Analysis Bioapplication software (Cellomics). The level of MLKL phosphorylation was quantified as MEAN_CircRingAvglntenRatio. The maximal inhibitory response was defined by the activity induced by Neels (CAS #: 852391-15-2, 6.25 μM). […] The data were fitted using the 4-parameter logistic equation to calculate the IC50 and Ymax values.

| Compound | IC50 (Homo sapiens) [nM] | IC50 [nM] |
| --- | --- | --- |
| CNC(=O)c1n[nH]c2cc(-c3cnc(OC)c(C(=O)NCC4CC4c4cccc(F)c4)c3)ccc12 (centres unmarked) [Example 42, 6-[5-({[2-(3-fluorophenyl)cyclo-propyl]methyl}carbamoyl)-6-methoxypyridin-3-yl]-N-methyl-1H-indazole-3-carboxamide] | 88 | – |
| COc1ncc(-c2ccc3c(C(=O)N[C@H](C)C4CC4)n[nH]c3c2)cc1C(=O)NCc1ccccc1OC(F)(F)F [Example 171, N-[(1R)-1-cyclopropylethyl]-6-[6-methoxy-5-({[2-(trifluoro-methoxy)phenyl]methyl}-carbamoyl)pyridin-3-yl]-1H-indazole-3-carboxamide] | 120 | – |
| [2H]C([2H])([2H])NC(=O)c1n[nH]c2cc(-c3cnc(OC([2H])([2H])[2H])c(C(=O)N[C@@H](C)c4cc(OC(F)(F)F)ccc4F)c3)ccc12 [Example 5, (S)-6-(5-((1-(2-fluoro-5-(trifluoromethoxy)phenyl)ethyl)carbamoyl)-6-(methoxy-d3)pyridin-3-yl)-N-(methyl-d3)-1H-indazole-3-carboxamide] | 9 | – |
| CNC(=O)c1n[nH]c2cc(-c3cnc(OC)c(C(=O)NCCC(C)c4ccc(F)cc4)c3)ccc12 (centres unmarked) [Example 41, 6-(5-{[3-(4-fluorophenyl)-butyl]carbamoyl}-6-methoxy-pyridin-3-yl)-N-methyl-1H-indazole-3-carboxamide] | 0.6 | – |
| [2H]C([2H])([2H])Oc1ncc(-c2ccc3c(C(=O)NC)n[nH]c3c2)cc1C(=O)N[C@H](C)c1cc(OC(F)(F)F)ccc1F [Example 30, 6-(5-{[(1R)-1-[2-fluoro-5-(tri-fluoromethoxy)phenyl]ethyl]-carbamoyl}-6-(deutero)methoxy-pyridin-3-yl)-N-methyl-1H-indazole-3-carboxamide] | 48 | – |
| CNC(=O)c1n[nH]c2cc(-c3cnc(OC)c(C(=O)NCCCOC4CCCCO4)c3)ccc12 (centres unmarked) [Example 61, 6-(6-methoxy-5-{[3-(oxan-2-yloxy)propyl]carbamoyl}-pyridin-3-yl)-N-methyl-1H-indazole-3-carboxamide] | 28 | – |
| CNC(=O)c1n[nH]c2cc(-c3cnc(OC)c(C(=O)N[C@@H](C)CC(=O)OC(C)(C)C)c3)ccc12 [Example 139, tert-butyl (3S)-3-({2-methoxy-5-[3-(methylcarbamoyl)-1H-indazol-6-yl]pyridin-3-yl}-formamido)butanoate] | 28 | – |
| [2H]C([2H])([2H])NC(=O)c1n[nH]c2cc(-c3cnc(OC([2H])([2H])[2H])c(C(=O)N[C@H](C)c4ccccc4C(F)(F)F)c3)ccc12 [Example 219, 6-[6-(deutero)methoxy-5-{[(1R)-1-[2-(trifluoromethyl)phenyl]ethyl]-carbamoyl}pyridin-3-yl]-N-(deutero)-methyl-1H-indazole-3-carboxamide] | 18 | – |
| [2H]C([2H])([2H])Oc1ncc(-c2ccc3c(C(=O)NC)n[nH]c3c2)cc1C(=O)N[C@@H](C)c1cccc(OC(F)(F)F)c1 [Example 25] | 190 | – |
| COc1ncc(-c2ccc3c(C(=O)NC4CC4)n[nH]c3c2)cc1C(=O)NCc1ccccc1OC(F)(F)F [Example 174, N-cyclopropyl-6-[6-methoxy-5-({[2-(trifluoromethoxy)phenyl]-methyl}carbamoyl)pyridin-3-yl]-1H-indazole-3-carboxamide] | 14 | – |
| CNC(=O)c1n[nH]c2cc(-c3cnc(OC)c(C(=O)NCc4ccccc4OC)c3)ccc12 [Example 58, 6-(6-methoxy-5-{[(2-methoxy-phenyl)methyl]carbamoyl}-pyridin-3-yl)-N-methyl-1H-indazole-3-carboxamide] | 5.6 | – |
| CNC(=O)c1n[nH]c2cc(-c3cnc(OC)c(C(=O)NCC(C)(C)C(=O)OC(C)(C)C)c3)cc(F)c12 [Example 144, tert-butyl 3-({5-[4-fluoro-3-(methylcarbamoyl)-1H-indazol-6-yl]-2-methoxy-pyridin-3-yl}formamido)-2,2-dimethylpropanoate] | 100 | – |
| [2H]C([2H])([2H])Oc1ncc(-c2ccc3c(C(=O)NC4CC4)n[nH]c3c2)cc1C(=O)NC(C)c1cccc(OC(F)(F)F)c1 (centres unmarked) [Example 197, N-cyclopropyl-6-[6-(deutero)-methoxy-5-({1-[3-(trifluorometh-oxy)phenyl]ethyl}carbamoyl)-pyridin-3-yl]-1H-indazole-3-carboxamide] | 52 | – |
| [2H]C([2H])([2H])NC(=O)c1n[nH]c2cc(-c3cnc(OC([2H])([2H])[2H])c(C(=O)N[C@@H](C)c4cccc(OC(F)(F)F)c4)c3)ccc12 [Example 220, 6-[6-(deutero)methoxy-5-{[(1S)-1-[3-(trifluoromethoxy)phenyl]ethyl]-carbamoyl}pyridin-3-yl]-N-(deutero)-methyl-1H-indazole-3-carboxamide] | 100 | – |
| COc1ncc(-c2ccc3c(C(=O)NC(C)C)n[nH]c3c2)cc1C(=O)NCc1ccccc1OC(F)(F)F [Example 179, 6-[6-methoxy-5-({[2-(trifluoro-methoxy)phenyl]methyl}carbam-oyl)pyridin-3-yl]-N-(propan-2-yl)-1H-indazole-3-carboxamide] | 73 | – |
| N-[(1,1,2,2,2-deutero)ethyl]-6-(5- {[(1R)-1-[2-fluoro-5-(trifluoro- methyl)phenyl]ethyl]carbamoyl}-6- (deutero)methoxypyridin-3-yl)-1H- indazole-3-carboxamide [Example 227] | – | 69 |
| [2H]C([2H])([2H])Oc1ncc(-c2ccc3c(C(=O)NC)n[nH]c3c2)cc1C(=O)N[C@H](c1cc(OC(F)(F)F)ccc1F)C([2H])([2H])[2H] [Example 10, (S)-6-(5-((1-(2-fluoro-5-(trifluoromethoxy)phenyl)ethyl-2,2,2-d3)carbamoyl)-6-(methoxy-d3)pyridin-3-yl)-N-methyl-1H-indazole-3-carboxamide] | 6.4 | – |
| COc1ncc(-c2ccc3c(C(=O)NCC(F)(F)F)n[nH]c3c2)cc1C(=O)NCc1ccccc1OC(F)(F)F [Example 178] | 120 | – |
| CNC(=O)c1n[nH]c2cc(-c3cnc(OC)c(C(=O)NCCCC(=O)OC(C)(C)C)c3)ccc12 [Example 135, tert-butyl 4-({2-methoxy-5-[3-(methylcarbamoyl)-1H-indazol-6-yl]pyridin-3-yl}formamido)-butanoate] | 200 | – |
| CNC(=O)c1n[nH]c2cc(-c3cnc(OC)c(C(=O)NCCCC(=O)N(CC4CC4)C4CC4)c3)ccc12 [Example 142, 6-[5-({3-[cyclopropyl(cyclo-propylmethyl)carbamoyl]-propyl}carbamoyl)-6-meth-oxypyridin-3-yl]-N-methyl-1H-indazole-3-carboxamide] | 120 | – |
| CNC(=O)c1n[nH]c2cc(-c3cnc(OC)c(C(=O)N[C@H](C)c4cc(OC(F)(F)F)ccc4F)c3)ccc12 [Example 216, 6-(5-{[(1R)-1-[2-fluoro-5-(trifluoro-methoxy)phenyl](2,2,2-deutero)-ethyl]carbamoyl}-6-(deutero)meth-oxypyridin-3-yl)-N-(deutero)methyl-1H-indazole-3-carboxamide] | – | 30 |
| [2H]C([2H])([2H])Oc1ncc(-c2ccc3c(C(=O)NC)n[nH]c3c2)cc1C(=O)N[C@@H](c1cccc(OC(F)(F)F)c1)C([2H])([2H])[2H] [Example 11, (R)-6-(6-(methoxy-d3)-5-((1-(3-(trifluoromethoxy)phenyl)ethyl-2,2,2-d3)carbamoyl)pyridin-3-yl)-N-methyl-1H-indazole-3-carboxamide, TFA] | 223 | – |
| CNC(=O)c1n[nH]c2cc(-c3cnc(OC)c(C(=O)N[C@@H]4C[C@H]4c4ccccc4)c3)ccc12 [Example 45, 6-(6-methoxy-5-{[(1R,2S)-2-phenylcyclopropyl]carbamoyl}-pyridin-3-yl)-N-methyl-1H-indazole-3-carboxamide] | 5 | – |
| CNC(=O)c1n[nH]c2cc(-c3cnc(OC)c(C(=O)N[C@H]4CC[C@@H](c5ccccc5)C4)c3)ccc12 [Example 67, 6-(6-methoxy-5-{[(1S,3R)-3-phenylcyclopentyl]carbamoyl}-pyridin-3-yl)-N-methyl-1H-indazole-3-carboxamide] | 39 | – |
| CNC(=O)c1n[nH]c2cc(-c3cnc(OC)c(C(=O)NCCC(O)c4ccc(F)cc4)c3)ccc12 (centres unmarked) [Example 40, 6-(5-{[3-(4-fluorophenyl)-3-hydroxypropyl]carbamoyl}-6-methoxypyridin-3-yl)-N-methyl-1H-indazole-3-carboxamide] | 5.7 | – |
| CNC(=O)c1n[nH]c2cc(-c3cnc(OC)c(C(=O)NCCCOC(C)(C)C)c3)ccc12 [Example 60, 6-(5-{[3-(tert-butoxy)propyl]-carbamoyl}-6-methoxypyridin-3-yl)-N-methyl-1H-indazole-3-carboxamide] | 16 | – |

From patent US12172975B2, “1H-indazole carboxamides as receptor-interacting protein kinase 1 inhibitors (RIPK1)” (BRISTOL-MYERS SQUIBB COMPANY, priority 2018, dated 2024)
